The results in this text go back to US12264173B2 (GILEAD SCIENCES, INC., priority 2020, dated 2025).

Type in all cases: cell-based
Assay [1] has as its system RSV A2. The experiment in a line: RSV NHBE EC50 (RSV A2 antiviral assay in NHBE cells). Particulars: read-out: RSV NHBE EC50. A digest of the protocol: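 NHBE cells (7,500/well, passage ≤6) given 3-fold serially diluted compound (0.05% DMSO final), then infected with RSV A2 at 1×10^4.5 tissue culture infectious doses/mL. After 4 days at 37 °C, viability measured by CellTiter-Glo luminescence at 25 °C.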

Assay [2] deals with DENV2 replicon. The experiment in a line: DENV-2 Huh-7 Rep EC50 (replicon luminescence). The procedure:
In 384 well plates (Greiner, Cat #781091), compounds were acoustically transferred at 200 nl per well in a 8 compound (4 replicates) or 40 compound dose response format (3 replicates). For all plates tested, Balapiravir, GS-5734 and NITD008 were included as positive inhibition controls alongside 0% inhibition, DMSO-only negative control wells. Following compound addition, Huh-7 cells containing the DENV2 replicon construct were harvested following standard cell culture procedures and were adjusted to a concentration of 1.25E5 cells/mL in cell culture media composed of cDMEM without genticin. 40 μL of the cell stock was then added to each well for a final cell density of 5,000 cells/well. Cell and compound mixtures were incubated at 37° C./5% CO2 for 48 hours. Prior to harvesting cells, EnduRen Live Cell Substrate (Promega, Cat #E6481) was prepared by suspending 3.4 mg into 100 uL of DMSO to generate a 60 mM stock solution. The stock solution was then diluted 1:200 in pre-warmed cDMEM and 10 uL of this diluted solution was added to each well of the 384 well plates. Plates were then centrifuged at 500 rpm briefly and were placed on a plate shaker for 2 min. Following mixing, plates were incubated at […] for 1.5 hours prior to measuring luminescence on an Envision luminometer.
Background: In antiviral work, replicon cells carry a viral genome segment that copies itself.

Assay [3] has as its system RSV strain A2. The experiment in a line: microbe, parasite or virus in culture. The note with it: read-out: RSV HEp-2 EC50. The method in brief: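 Cytopathic-effect protection assay: HEp-2 cells (50,000/mL) infected with pre-titered RSV A2 onto 3-fold serial compound dilutions, incubated 4 days at 37° C. Cell viability read by CellTiter-Glo luminescence; percent inhibition derived against 0% and 100% virus-inhibition controls.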

For assay [4], the system named is HRV16. Put plainly: HRV16 HeLa EC50 (cytopathic effect in H1-HeLa cells). As for the experimental part: H1-HeLa cells, cultured in complete DMEM medium containing 10% heat-inactivated FBS and 1% Penicillin/Streptomycin, were seeded in 96 well plates at 3000 cells/well one day prior to compound dosing and infection. The antiviral activity of each compound was measured in triplicate. Compounds were added directly to the cell cultures in serial 3-fold dilutions using the HP300 digital dispenser (Hewlett Packard, Palo Alto, CA) immediately prior to infection. The plates were transferred to BSL-2 containment and the appropriate dilution of virus stock, previously determined by titration and prepared in cell culture media, was added to test plates containing cells and serially diluted compounds. Each plate included 6 wells of infected untreated cells and 6 wells of uninfected cells that served as 0% and 100% virus inhibition control, respectively. Following the infection, test plates were incubated for 96 h in a tissue culture incubator set to 33° C./5% CO2. Following incubation, the H1-HeLa cells were removed from incubation and allowed to equilibrate to 25° C. Cell viability was determined by removing 100 μL of culture medium and adding 100 μL of Cell-Titer Glo viability reagent. The mixtures were incubated on a shaker for 10 minutes at 25° C., and the luminescence signal was quantified on an Envision luminescence plate reader.
On the technique in general: Damage to the host cells serves as the signal in cytopathic effect assays.

[5] abbreviates: Table 3, NHBE cells, RSV A2, 4 days.
Where [6] appears, read: Table 3, HEp-2 cells, RSV A2, 4 days.
[7] abbreviates: human respiratory syncytial virus, NHBE, 96 h, Table 3, NHBE cells, RSV A2, 4 days.
[8] abbreviates: Dengue virus, DENV2, Huh-7, 48 h, read-out: DENV-2 REP Huh7 EC50.
[9] abbreviates: human respiratory syncytial virus, HEp-2, 96 h, Table 3, HEp-2 cells, RSV A2, 4 days.
The mark [10] stands for this setting: human respiratory syncytial virus, NHBE, Table 5 comparative activity, 2',3'-OH vs -OC(O)iPr.
The mark [11] stands for this setting: human respiratory syncytial virus, HEp-2, Table 5 comparative activity, 2',3'-OH vs -OC(O)iPr.

Read-outs that look alike come from different tables or passages of the source.

For orientation: EC50 means the midpoint of the concentration-response curve. Consider `CC(=O)O[C@H]1[C@H](c2ccc3c(N)ncnn23)O[C@](C#N)(CO[P@](=O)(N[C@@H](C)C(=O)OCC2CC2)Oc2ccccc2)[C@H]1OC(C)=O` [Example 103], for which the EC50 was determined as 32 nM in assay [1] (setting [5]); 10500 nM in assay [2] (Table 3, Huh-7 DENV2 replicon cells, 48 hours, read-out: DENV-2 REP Huh7 EC50); 94 nM in assay [3] (setting [6]).

With `CC(C)C(=O)O[C@H]1[C@H](c2ccc3c(N)ncnn23)O[C@](C#N)(COP(=O)(N[C@@H](C)C(=O)OC2CCCC2)Oc2ccccc2)[C@H]1OC(=O)C(C)C` (stereo partly drawn) [Example 254, (2R,3S,4S,5S)-5-(4-aminopyrrolo[2,1-f][1,2,4]triazin-7-yl)-2-cyano-2-((((((S)-1-(cyclopentyloxy)-1-oxopropan-2-yl)amino)(phenoxy)phosphoryl)oxy)methyl) tetrahydrofuran-3,4-diyl bis(2-methylpropanoate)], the EC50 in assay [1] (setting [7]) came out at 24 nM; in assay [2] (setting [8]) it was 29400 nM; in assay [3] (setting [9]), 36 nM.

In the case of `CC(C)C(=O)O[C@H]1[C@H](c2ccc3c(N)ncnn23)O[C@](C#N)(COP(=O)(N[C@@H](C)C(=O)OC[C@H]2CC[C@H](N)CC2)Oc2ccccc2)[C@H]1OC(=O)C(C)C` (stereo partly drawn) [Example 207, (2R,3S,4S,5S)-2-((((((S)-1-(((1r,4S)-4-aminocyclohexyl)methoxy)-1-oxopropan-2-yl)amino)(phenoxy)phosphoryl)oxy)methyl)-5-(4-aminopyrrolo[2,1-f][1,2,4]triazin-7-yl)-2-cyanotetrahydrofuran-3,4-diyl bis(2-methylpropanoate)], the results for the EC50 in assay [1] (setting [7]), in assay [2] (setting [8]) and in assay [3] (setting [9]) were 149 nM, more than 37500 nM and 1080 nM, respectively.

In the case of `CC(C)OC(=O)[C@H](C)NP(=O)(OCCS(C)(=O)=O)OC[C@@]1(C#N)O[C@@H](c2ccc3c(N)ncnn23)[C@H](OC(=O)C(C)C)[C@@H]1OC(=O)C(C)C` (stereo partly drawn) [Example 210, (2R,3S,4S,5S)-5-(4-aminopyrrolo[2,1-f][1,2,4]triazin-7-yl)-2-cyano-2-((((((S)-1-isopropoxy-1-oxopropan-2-yl)amino)(2-(methylsulfonyl)ethoxy)phosphoryl)oxy)methyl)tetrahydrofuran-3,4-diyl bis(2-methylpropanoate)], the EC50 in assay [1] (setting [7]) was 3420 nM; in assay [2] (Dengue virus, DENV2, Huh-7, 48 h, read-out: DENV-2 REP Huh7 EC50, Table 3, Huh-7 DENV2 replicon cells, 48 hours), more than 35400 nM; in assay [3] (setting [9]), 36300 nM.

Turning to `CC(=O)OC1[C@H](c2ccc3c(N)ncnn23)O[C@](C#N)(COP(=O)(N[C@@H](C)C(=O)OCC2CCC2)Oc2ccccc2)[C@H]1OC(C)=O` (stereo in doubt) [Example 94, (2R,3S,4R,5S)-5-(4-aminopyrrolo[2,1-f][1,2,4]triazin-7-yl)-2-cyano-2-((((((S)-1-(cyclobutylmethoxy)-1-oxopropan-2-yl)amino)(phenoxy)phosphoryl)oxy)methyl) tetrahydrofuran-3,4-diyl diacetate], the EC50 in assay [1] (setting [7]) was determined as 41 nM; in assay [2] (setting [8]) it was 13700 nM; in assay [3] (setting [9]) it was 189 nM.

Take `CC(C)OC(=O)[C@H](C)NP(=O)(OC[C@@]1(C#N)O[C@@H](c2ccc3c(N)ncnn23)[C@H](OC(=O)C(C)C)[C@@H]1OC(=O)C(C)C)Oc1ccc(C(=O)N(C)C)cc1` (stereo partly drawn) [Example 177, (2R,3S,4S,5S)-5-(4-Aminopyrrolo[2,1-f][1,2,4]triazin-7-yl)-2-cyano-2-((((4-(dimethylcarbamoyl)phenoxy)(((S)-1-isopropoxy-1-oxopropan-2-yl)amino)phosphoryl)oxy)methyl)tetrahydrofuran-3,4-diyl bis(2-methylpropanoate)]: the values for the EC50 in assay [1] (setting [7]), in assay [2] (setting [8]) and in assay [3] (setting [9]) were 49 nM, 27200 nM and 120 nM, respectively.

Regarding `CC(C)C(=O)O[C@H]1[C@H](c2ccc3c(N)ncnn23)O[C@](C#N)(COP(=O)(N[C@@H](C)C(=O)OC2CC2)Oc2ccccc2)[C@H]1OC(=O)C(C)C` (stereo partly drawn) [Example 255, (2R,3S,4S,5S)-5-(4-aminopyrrolo[2,1-f][1,2,4]triazin-7-yl)-2-cyano-2-((((((S)-1-cyclopropoxy-1-oxopropan-2-yl)amino)(phenoxy)phosphoryl)oxy)methyl) tetrahydrofuran-3,4-diyl bis(2-methylpropanoate)], the figures for the EC50 in assay [1] (setting [7]), in assay [2] (setting [8]) and in assay [3] (setting [9]) were 18 nM, 2910 nM and 38 nM, respectively.

For the compound `CC(C)C(=O)O[C@H]1[C@H](c2ccc3c(N)ncnn23)O[C@](C#N)(COP(=O)(N[C@@H](C)C(=O)OCC2CCOCC2)Oc2ccccc2)[C@H]1OC(=O)C(C)C` (mixture of isomers) [Example 181, (2R,3S,4S,5S)-5-(4-aminopyrrolo[2,1-f][1,2,4]triazin-7-yl)-2-cyano-2-((((((S)-1-oxo-1-((tetrahydro-2H-pyran-4-yl)methoxy)propan-2-yl)amino)(phenoxy)phosphoryl)oxy)methyl)tetrahydrofuran-3,4-diyl bis(2-methylpropanoate)], the EC50 came to 30 nM in assay [1] (setting [7]); 30 nM in assay [1] (setting [10]); 6630 nM in assay [2] (setting [8]); 6630 nM in assay [2] (Dengue virus, DENV2, Huh-7, read-out: DENV Rep EC50); 84 nM in assay [3] (setting [9]); 84 nM in assay [3] (setting [11]).

For the compound `C[C@H](NP(=O)(OC[C@@]1(C#N)O[C@@H](c2ccc3c(N)ncnn23)[C@H](O)[C@@H]1O)Oc1ccccc1)C(=O)OC1COC1` (stereo partly drawn) [Example 44, oxetan-3-yl ((((2R,3S,4R,5S)-5-(4-aminopyrrolo[2,1-f][1,2,4]triazin-7-yl)-2-cyano-3,4-dihydroxytetrahydrofuran-2-yl)methoxy)(phenoxy)phosphoryl)-L-alaninate], the EC50 in assay [4] (HeLa, Table 5 comparative activity, 2',3'-OH vs -OC(O)iPr, read-out: HRV16 HeLa EC50) is 4260 nM; in assay [1] (setting [10]), 1800 nM; in assay [3] (setting [11]), 997 nM.

In the case of `CC(C)[C@H](N)C(=O)O[C@H]1[C@H](c2ccc3c(N)ncnn23)O[C@](C#N)(COP(=O)(N[C@@H](C)C(=O)OC2CCOCC2)Oc2ccccc2)[C@H]1OC(=O)[C@@H](N)C(C)C` (stereo partly drawn) [Example 221, (2R,3S,4S,5S)-5-(4-aminopyrrolo[2,1-f][1,2,4]triazin-7-yl)-2-cyano-2-((((((S)-1-oxo-1-((tetrahydro-2H-pyran-4-yl)oxy)propan-2-yl)amino)(phenoxy)phosphoryl)oxy)methyl)tetrahydrofuran-3,4-diyl (2S,2'S)-bis(2-amino-3-methylbutanoate)], the concentration giving a half-maximal response (EC50) in assay [4] (Table 3, H1-HeLa cells, 96 h, read-out: HRV16 HeLa EC50) amounted to 8990 nM; in assay [1] (setting [5]) it was 1170 nM; in assay [3] (setting [6]), 660 nM.

On to `C[C@H](NP(=O)(OC[C@@]1(C#N)O[C@@H](c2ccc3c(N)ncnn23)[C@H](O)[C@@H]1O)Oc1ccccc1)C(=O)OC1CCN(C)CC1` (stereo partly drawn) [Example 19], for which the EC50 in assay [4] (HeLa, read-out: HRV16 HeLa EC50, Table 5 comparative activity, 2',3'-OH vs -OC(O)iPr) is not below 50000 nM; in assay [1] (setting [10]) it was more than 5000 nM; in assay [3] (setting [11]), 4180 nM.

As to `COC(=O)[C@H](C)NP(=O)(OC[C@@]1(C#N)O[C@@H](c2ccc3c(N)ncnn23)[C@H](OC(=O)C(C)C)[C@@H]1OC(=O)C(C)C)Oc1ccc(C[C@H](N)C(=O)OC)cc1` (stereo partly drawn) [Example 235, (2R,3S,4S,5S)-2-((((4-((S)-2-amino-3-methoxy-3-oxopropyl)phenoxy)(((S)-1-methoxy-1-oxopropan-2-yl)amino)phosphoryl)oxy)methyl)-5-(4-aminopyrrolo[2,1-f][1,2,4]triazin-7-yl)-2-cyanotetrahydrofuran-3,4-diyl bis(2-methylpropanoate)], the EC50 was found to be 2260 nM in assay [4] (96 h, Table 3, H1-HeLa cells, 96 h, read-out: HRV16 HeLa EC50); 113 nM in assay [1] (setting [7]); 742 nM in assay [3] (setting [9]).
